Laboratory results reported in patent US4487768A, “Cephem compounds” (Fujisawa Pharmaceutical Co., Ltd., priority 1982, dated 1984).
In brackets after ≈: the same amount, converted by molar mass.

How the values were obtained:
[1] = Urinary excretion in rats after oral administration; assay type: in vivo; details: rat, oral 100 mg/kg, urine 0 to 6 and 6 to 24 hours, bioassay, read-out: Urinary recovery in 24 hours (%)
Method: Urine of rats was collected with a urine collector at 0 to 6, and 6 to 24 hours after oral administration of 100 mg/kg of the test antibiotic. The antibiotic levels in the urine samples were bioassayed with the standard solution prepared with M/15 phosphate buffer (pH 7.0) and the urinary recovery in 24 hours was calculated.

in vivo = details: rat, po, 100 mg/kg
Method: Rats anesthetized with pentobarbital were fixed in supine position, and a polyethylene cannula was inserted into the bile duct. Bile samples were collected at 0 to 3, 3 to 6, and 6 to 24 hours after oral administration of 100 mg/kg of the test antibiotic. The antibiotic levels in the bile samples were bioassayed with the standard solutions prepared with M/15 phosphate buffer (pH 7.0) and the biliary recovery in 24 hours were calculated.

Proteus vulgaris 2 = assay: Minimal inhibitory concentration, two-fold agar-plate dilution method; assay type: cell-based; details: HI-agar, 37° C., 20 hours, 10^8 viable cells per ml
Method: (§1) (A) Minimal inhibitory concentration 1 Test Method In vitro antibacterial activity was determined by the two-fold agar-plate dilution method as described below. One loopful of an overnight culture of each test strain in Trypticase-soy broth (10^8 viable cells per ml) was streaked on heart infusion agar (HI-agar) containing graded concentrations of representative test compound, and the minimal inhibitory concentration (MIC) was expressed in tems of μg/ml after incubation at 37° C. for 20 hours.

Proteus mirabilis 18 = assay: as above; assay type: cell-based; details: HI-agar, 37° C., 20 hours, 10^8 viable cells per ml
Method: as §1

dose excreted at 24 h [1]: 26.6%
dose excreted at 24 h (in vivo): 4.72%
MIC (Proteus vulgaris 2): 0.1 µg/mL (≈ 0.207 µM)
MIC (Proteus mirabilis 18): 0.05 µg/mL (≈ 0.103 µM)
Compound: [N-]=[N+]=NCC1=C(C(=O)O)N2C(=O)C(NC(=O)/C(=N\OCC(=O)O)c3nsc(N)n3)C2SC1 (stereo not drawn) [Test Compound (1), 7-[2-Carboxymethoxyimino-2-(5-amino-1,2,4-thiadiazol-3-yl)acetamido]-3-azidomethyl-3-cephem-4-carboxylic acid (syn isomer)]
